Measurements as given in patent publication US11844801B2, “Oral compositions of MK2 pathway inhibitor for treatment of immune conditions” (priority 2020, dated 2023).
Several values for one entry are separate records, joined by “and”; a condition that tells them apart may be missing. Equal values may be shown once. Read-outs that look alike come from different tables or passages of the source. Marks after values point to notes of the source that are not given here.

Experiment: Phase 1 SAD/MAD pharmacokinetics of oral ATI-450 in healthy subjects (incl. 80/120 mg BID extension)
Type: in vivo, human
Conditions: for Cmax: read-out: Cmax; for concentration at 2 day: day 2; for concentration at 3 day: day 3; for concentration at 4 day: day 4; for concentration at 5 day: day 5; for concentration at 6 day: day 6; for Vd/F: read-out: Vss/F
Experimental: Study Design. […] Single ascending dose (SAD) cohorts. […] Multiple ascending dose (MAD) cohorts. […] Blood Sampling and Bioanalysis. Two-milliliter blood samples were collected for PK analysis. […] The lower limit of quantification was 0.500 ng/mL. Pharmacokinetics. […] Bioanalysis Assay of ATI-450. Sample processing was performed by protein precipitation using a 50.0-μL sample volume. […] A triple quadrupole 6500 mass spectrometer equipped with a turbo-ion spray source was used for detection in positive ion mode. […] A linear calibration curve ranging from 0.500 to 500 ng/mL with a 1/x^2 weighting factor was used. The method was minimally required to have intra- and inter-day precision (coefficients of variation) for pooled plasma quality control samples of ≤15% except at the lower limit of quantitation, where ≤20% was acceptable. The calculated concentrations (both inter- and intra-day) were required to be within 15% of nominal at all concentrations except the lower limit of quantitation, where up to 20% deviation from nominal was acceptable. The precision and accuracy of the method exceeded these minimum requirements for assay validation.

[1] = both sexes, human, plasma, oral, 80 mg, 80 mg BID, read-out: Ctrough
[2] = both sexes, human, plasma, oral, 80 mg, 80 mg BID, day 7
[3] = both sexes, human, plasma, oral, 120 mg, 120 mg BID, day 1
[4] = both sexes, human, plasma, oral, 120 mg, 120 mg BID, read-out: Ctrough
[5] = both sexes, human, plasma, oral, 120 mg, 120 mg BID, day 7
[6] = both sexes, human, plasma, po, 10 mg, single oral dose 10 mg, fasted
[7] = both sexes, human, plasma, po, 30 mg, single oral dose 30 mg, fasted
[8] = both sexes, human, plasma, po, 50 mg, single oral dose 50 mg, fasted
[9] = both sexes, human, plasma, po, 100 mg, single oral dose 100 mg, fasted
[10] = both sexes, human, plasma, po, 100 mg, single oral dose 100 mg, fed (high-fat, high-calorie breakfast)
[11] = single oral dose 100 mg, fasted

**Q.** For `Cc1cnc(-c2ccnc(C(C)(C)O)n2)cc1-n1c(C)cc(OCc2ncc(F)cc2F)c(Cl)c1=O` (single isomer, unassigned) [ATI-450, 3-chloro-4-((3,5-difluoropyridin-2-yl)methoxy)-2′-(2-(2-hydroxypropan-2-yl)pyrimidin-4-yl)-5′,6-dimethyl-2H-[1,4′-bipyridin]-2-one], which Cmax (both sexes, human, plasma, oral, 80 mg, 80 mg BID, day 1) is on record?
**A.** 258 ± 83.8 ng/mL

**Q.** What about the Tmax (both sexes, human, plasma, oral, 80 mg, 80 mg BID, day 1, read-out: Tmax, median (min, max)) of the same compound?
**A.** 2 h

**Q.** And the concentration at 2 day [1]?
**A.** 176 ± 67.5 ng/mL

**Q.** What about the concentration at 3 day [1] of the same compound?
**A.** 149 ± 54 ng/mL

**Q.** What about the concentration at 4 day [1] of the same compound?
**A.** 148 ± 59.9 ng/mL

**Q.** And the concentration at 5 day [1]?
**A.** 145 ± 78.3 ng/mL

**Q.** And the concentration at 6 day [1]?
**A.** 144 ± 64.9 ng/mL

**Q.** What about the AUC [2] of the same compound?
**A.** 2550 ± 730 ng·h/mL

**Q.** What about the AUC(0-t) (both sexes, human, plasma, oral, 80 mg, 80 mg BID, day 7, read-out: AUC0-24, total daily exposure calculated as AUC0-12 × 2) of the same compound?
**A.** 5100 ng·h/mL

**Q.** And the AUC(0-t) (both sexes, human, plasma, oral, 80 mg, 80 mg BID, day 7, read-out: AUC0-t)?
**A.** 4030 ± 1150 ng·h/mL

**Q.** What about the concentration at 7 day (both sexes, human, plasma, oral, 80 mg, 80 mg BID, day 7, read-out: Cavg) of the same compound?
**A.** 212 ± 60.8 ng/mL

**Q.** And the Cmax [2]?
**A.** 389 ng/mL

**Q.** What about the concentration at 7 day (both sexes, human, plasma, oral, 80 mg, 80 mg BID, day 7, read-out: Cmin) of the same compound?
**A.** 100 ± 39.8 ng/mL

**Q.** And the Tmax (both sexes, human, plasma, oral, 80 mg, 80 mg BID, day 7, read-out: Tmax, median (min, max))?
**A.** 2 h

**Q.** And the half-life (both sexes, human, plasma, oral, 80 mg, 80 mg BID, day 7, read-out: t1/2 (converted))?
**A.** 858 ± 318 min

**Q.** What about the concentration at 7 day (both sexes, human, plasma, oral, 120 mg BID, day 7, read-out: Ctrough) of the same compound?
**A.** 156 ng/mL

**Q.** And the AUC [3]?
**A.** 2320 ± 383 ng·h/mL

**Q.** And the AUC(0-t) (both sexes, human, plasma, oral, 120 mg, 120 mg BID, day 1, read-out: AUC0-t)?
**A.** 2310 ± 380 ng·h/mL

**Q.** And the Cmax [3]?
**A.** 379 ± 60.6 ng/mL

**Q.** What about the Tmax (both sexes, human, plasma, oral, 120 mg, 120 mg BID, day 1, read-out: Tmax, median (min, max)) of the same compound?
**A.** 3 h

**Q.** And the concentration at 2 day [4]?
**A.** 152 ± 93.3 ng/mL

**Q.** What about the concentration at 3 day [4] of the same compound?
**A.** 144 ± 98.8 ng/mL

**Q.** And the concentration at 4 day [4]?
**A.** 126 ± 84.4 ng/mL

**Q.** What about the concentration at 5 day [4] of the same compound?
**A.** 145 ± 67.5 ng/mL

**Q.** And the concentration at 6 day [4]?
**A.** 161 ± 87.5 ng/mL

**Q.** What about the AUC [5] of the same compound?
**A.** 2580 ± 1030 ng·h/mL

**Q.** What about the AUC(0-t) (both sexes, human, plasma, oral, 120 mg, 120 mg BID, day 7, read-out: AUC0-24, total daily exposure calculated as AUC0-12 × 2) of the same compound?
**A.** 5160 ng·h/mL

**Q.** And the AUC(0-t) (both sexes, human, plasma, oral, 120 mg, 120 mg BID, day 7, read-out: AUC0-t)?
**A.** 4170 ± 2090 ng·h/mL

**Q.** What about the concentration at 7 day (both sexes, human, plasma, oral, 120 mg, 120 mg BID, day 7, read-out: Cavg) of the same compound?
**A.** 215 ± 85.9 ng/mL

**Q.** And the Cmax [5]?
**A.** 416 ng/mL

**Q.** And the concentration at 7 day (both sexes, human, plasma, oral, 120 mg, 120 mg BID, day 7, read-out: Cmin)?
**A.** 96.1 ± 64.1 ng/mL

**Q.** What about the Tmax (both sexes, human, plasma, oral, 120 mg, 120 mg BID, day 7, read-out: Tmax, median (min, max)) of the same compound?
**A.** 2 h

**Q.** And the half-life (both sexes, human, plasma, oral, 120 mg, 120 mg BID, day 7, read-out: t1/2 (converted))?
**A.** 522 ± 144 min

**Q.** And the half-life (both sexes, human, plasma, oral, MAD cohorts 10-50 mg BID, day 7, read-out: terminal half-life (mean t1/2), range over cohorts)?
**A.** 540 to 720 min

**Q.** And the half-life (both sexes, human, plasma, oral, SAD cohorts, fasted, read-out: mean t1/2, range across dose cohorts)?
**A.** 540 to 660 min

**Q.** What about the Tmax (both sexes, human, plasma, oral, SAD cohorts, fasted, read-out: median Tmax, range across dose cohorts) of the same compound?
**A.** 2 to 4 h

**Q.** What about the Vd/F (both sexes, human, plasma, oral, 50 mg BID, day 7) of the same compound?
**A.** 586 ± 163 L

**Q.** And the Vd/F (both sexes, human, plasma, oral, 80 mg BID, day 7)?
**A.** 690 ± 294 L

**Q.** And the Vd/F (both sexes, human, plasma, oral, 120 mg BID, day 7)?
**A.** 621 ± 183 L

**Q.** What about the AUC(0-inf) [6] of the same compound?
**A.** 285 ng·h/mL

**Q.** And the Cmax [6]?
**A.** 39.4 ng/mL

**Q.** And the Tmax (both sexes, human, plasma, po, 10 mg, single oral dose 10 mg, fasted, read-out: Tmax, median (min, max))?
**A.** 2 h

**Q.** And the half-life (both sexes, human, plasma, po, 10 mg, single oral dose 10 mg, fasted, read-out: t1/2 (converted))?
**A.** 510 min

**Q.** What about the AUC(0-inf) [7] of the same compound?
**A.** 1100 ng·h/mL

**Q.** What about the Cmax [7] of the same compound?
**A.** 122 ng/mL

**Q.** And the Tmax (both sexes, human, plasma, po, 30 mg, single oral dose 30 mg, fasted, read-out: Tmax, median (min, max))?
**A.** 4 h

**Q.** What about the half-life (both sexes, human, plasma, po, 30 mg, single oral dose 30 mg, fasted, read-out: t1/2 (converted)) of the same compound?
**A.** 642 min

**Q.** What about the AUC(0-inf) [8] of the same compound?
**A.** 1460 ng·h/mL

**Q.** What about the Cmax [8] of the same compound?
**A.** 161 ng/mL

**Q.** And the Tmax (both sexes, human, plasma, po, 50 mg, single oral dose 50 mg, fasted, read-out: Tmax, median (min, max))?
**A.** 3 h

**Q.** And the half-life (both sexes, human, plasma, po, 50 mg, single oral dose 50 mg, fasted, read-out: t1/2 (converted))?
**A.** 546 min

**Q.** What about the AUC(0-inf) [9] of the same compound?
**A.** 3650 ng·h/mL

**Q.** What about the Cmax [9] of the same compound?
**A.** 426 ng/mL

**Q.** What about the Tmax (both sexes, human, plasma, po, 100 mg, single oral dose 100 mg, fasted, read-out: Tmax, median (min, max)) of the same compound?
**A.** 2 h

**Q.** What about the half-life (both sexes, human, plasma, po, 100 mg, single oral dose 100 mg, fasted, read-out: t1/2 (converted)) of the same compound?
**A.** 672 min

**Q.** And the AUC(0-inf) [10]?
**A.** 4100 ng·h/mL

**Q.** And the Cmax [10]?
**A.** 371 ng/mL

**Q.** And the Tmax (both sexes, human, plasma, po, 100 mg, single oral dose 100 mg, fed (high-fat, high-calorie breakfast), read-out: Tmax, median (min, max))?
**A.** 6 h

**Q.** What about the half-life (both sexes, human, plasma, po, 100 mg, single oral dose 100 mg, fed (high-fat, high-calorie breakfast), read-out: t1/2 (converted)) of the same compound?
**A.** 378 min

**Q.** What about the AUC(0-t) (single oral dose 10 mg, fasted) of the same compound?
**A.** 276.3 ± 77.8 ng·h/mL

**Q.** And the CL/F (single oral dose 10 mg, fasted)?
**A.** 37.0 ± 8.8 L/h

**Q.** And the “Tmax, median (min, max)” value (single oral dose 10 mg, fasted)?
**A.** 2.0 (2.0-4.0) h

**Q.** What about the Vz/F (single oral dose 10 mg, fasted) of the same compound?
**A.** 430.2 ± 124.0 L

**Q.** What about the t1/2 (single oral dose 10 mg, fasted) of the same compound?
**A.** 8.5 ± 3.2 h

**Q.** What about the AUC(0-t) (single oral dose 30 mg, fasted) of the same compound?
**A.** 1074.0 ± 243.5^a h*ng/mL

**Q.** What about the CL/F (single oral dose 30 mg, fasted) of the same compound?
**A.** 28.4 ± 7.1^a L/h

**Q.** What about the “Tmax, median (min, max)” value (single oral dose 30 mg, fasted) of the same compound?
**A.** 4.0 (2.0-4.1) h

**Q.** What about the Vz/F (single oral dose 30 mg, fasted) of the same compound?
**A.** 451.4 ± 201.5^a L

**Q.** What about the AUC(0-t) (single oral dose 50 mg, fasted) of the same compound?
**A.** 1430.0 ± 254.0 ng·h/mL

**Q.** What about the CL/F (single oral dose 50 mg, fasted) of the same compound?
**A.** 35.1 ± 6.3 L/h

**Q.** And the “Tmax, median (min, max)” value (single oral dose 50 mg, fasted)?
**A.** 3.0 (2.0-4.0) h

**Q.** What about the Vz/F (single oral dose 50 mg, fasted) of the same compound?
**A.** 445.0 ± 94.7 L

**Q.** What about the t1/2 (single oral dose 50 mg, fasted) of the same compound?
**A.** 9.1 ± 2.4 h

**Q.** And the AUC(0-t) [11]?
**A.** 3489.8 ± 475.7 ng·h/mL

**Q.** What about the CL/F [11] of the same compound?
**A.** 27.9 ± 4.3 L/h

**Q.** And the “Tmax, median (min, max)” value [11]?
**A.** 2.0 (2.0, 4.0) h and 2.0 (2.0-4.0) h

**Q.** And the Vz/F [11]?
**A.** 439.8 ± 189.7 L

**Q.** What about the t1/2 [11] of the same compound?
**A.** 11.2 ± 5.8 h

**Q.** And the “Tmax, median (min, max)” value (single oral dose 100 mg, fed (high-fat, high-calorie breakfast))?
**A.** 6.0 (4.0, 12.0) h

**Q.** And the “steady state reached by day” value (twice-daily administration, all dose levels 10-50 mg)?
**A.** ≤ 2 days
